Molecular target: T1, HDAC6 (Homo sapiens, UniProt Q9UBN7)
T1 sequence (Q9UBN7 1-1215): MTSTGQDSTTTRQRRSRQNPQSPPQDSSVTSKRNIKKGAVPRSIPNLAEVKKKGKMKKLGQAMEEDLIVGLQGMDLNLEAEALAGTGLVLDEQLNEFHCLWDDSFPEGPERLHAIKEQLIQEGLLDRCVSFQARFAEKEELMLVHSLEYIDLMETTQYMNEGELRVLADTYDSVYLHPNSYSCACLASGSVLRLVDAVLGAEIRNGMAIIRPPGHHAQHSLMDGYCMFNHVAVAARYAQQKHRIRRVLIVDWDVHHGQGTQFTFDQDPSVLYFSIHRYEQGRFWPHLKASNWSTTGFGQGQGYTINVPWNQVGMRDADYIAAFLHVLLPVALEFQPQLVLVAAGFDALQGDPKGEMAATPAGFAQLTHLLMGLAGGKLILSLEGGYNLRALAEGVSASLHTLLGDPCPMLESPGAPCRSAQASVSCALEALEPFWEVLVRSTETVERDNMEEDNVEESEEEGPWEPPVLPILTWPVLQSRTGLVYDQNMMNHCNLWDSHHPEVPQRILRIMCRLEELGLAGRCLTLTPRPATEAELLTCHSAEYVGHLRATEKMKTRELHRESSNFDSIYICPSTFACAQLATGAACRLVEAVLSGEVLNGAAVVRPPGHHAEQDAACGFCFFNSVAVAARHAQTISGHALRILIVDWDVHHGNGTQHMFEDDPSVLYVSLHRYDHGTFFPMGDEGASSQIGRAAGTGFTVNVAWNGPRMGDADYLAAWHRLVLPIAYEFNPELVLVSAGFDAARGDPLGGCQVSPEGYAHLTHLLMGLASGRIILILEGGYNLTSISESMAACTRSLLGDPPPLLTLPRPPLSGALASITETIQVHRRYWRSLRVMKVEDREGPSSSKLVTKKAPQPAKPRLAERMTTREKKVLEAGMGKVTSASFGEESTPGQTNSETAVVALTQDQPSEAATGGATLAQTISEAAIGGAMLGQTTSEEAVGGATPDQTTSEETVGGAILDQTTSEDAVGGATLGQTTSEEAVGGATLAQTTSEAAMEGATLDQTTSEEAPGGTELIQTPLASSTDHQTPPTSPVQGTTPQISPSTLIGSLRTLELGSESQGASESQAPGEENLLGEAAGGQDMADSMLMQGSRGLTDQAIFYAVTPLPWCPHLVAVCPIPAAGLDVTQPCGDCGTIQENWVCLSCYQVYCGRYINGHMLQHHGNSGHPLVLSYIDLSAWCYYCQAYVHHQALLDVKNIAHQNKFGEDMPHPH
Assay: Multiplexed TMT mass spectrometry proteomics in Kelly cells, HDAC6 abundance
Assay type: cell-based
Parameters: endogenous in cells; host or cells: Kelly cells
Method: Lysis buffer (8 M Urea, 50 mM NaCl, 50 mM 4-(2hydroxyethyl)-1-piperazineethanesulfonic acid (EPPS) pH 8.5, protease and phosphatase inhibitors from Roche®) were added to the cell pellets and homogenized by 20 passes through a 21 gauge (1.25 in. long) needle to achieve a cell lysate with a protein concentration between 1-4 mg mL^−1. A micro-BCA assay (Pierce™) was used to determine the final protein concentration in the cell lysate. 200 μg of protein for each sample were reduced and alkylated as described above.
Proteins were precipitated using methanol/chloroform. Four volumes of methanol were added to the cell lysate, followed by one volume of chloroform, and finally three volumes of water. The mixture was vortexed and centrifuged to separate the chloroform phase from the aqueous phase. The precipitated protein was washed with three volumes of methanol, centrifuged and the resulting washed precipitated protein was allowed to air dry. The precipitated protein was resuspended in 4 M Urea, 50 mM HEPES pH 7.4, followed by dilution to 1 M urea with the addition of 200 mM EPPS, pH 8. Proteins were first digested with LysC (1:50; enzyme:protein) for 12 hours at room temperature. The LysC digestion was diluted to 0.5 M Urea with 200 mM EPPS pH 8 followed by digestion with trypsin (1:50; enzyme:protein) for 6 hours at 37° C. Tandem mass tag (TMT) reagents (Thermo Fisher Scientific™) were dissolved in anhydrous acetonitrile (ACN) according to manufacturer's instructions.
Anhydrous ACN was added to each peptide sample to a final concentration of 30% v/v, and labeling was induced with the addition of TMT reagent to each sample at a ratio of 1:4 peptide:TMT label. […] The sample channels were combined at a 1:1:1:1:1:1:1:1:1:1:1 ratio, desalted using Cis solid phase extraction cartridges (Waters) and analyzed by LC-MS for channel ratio comparison. Samples were then combined using the adjusted volumes determined in the channel ratio analysis and dried down in a speed vacuum. […]

**Q.** Which “change in cellular HDAC6 protein levels vs DMSO (heat map FIG. 5)” value (1 μM, 2, 4, 8, and 16 hours) does the source give for CN(C(=O)CCCNc1cccc2c1C(=O)N(C1CCC(=O)NC1=O)C2=O)c1ccc(NC(=O)CCCCCCC(=O)NO)cc1 (stereo not drawn) [Compound 1, N^1-(4-(4-((2-(2,6-dioxopiperidin-3-yl)-1,3-dioxoisoindolin-4-yl)amino)-N-methylbutanamido)phenyl)-N^8-hydroxyoctanediamide] here?
**A.** induced down regulation of cellular HDAC6 protein levels

**Q.** And the “change in HDAC6 protein levels vs DMSO, time course (FIG. 4)” value (1 μM, after 2 hours)?
**A.** significant reduction in HDAC6 protein levels

**Q.** And the “course of HDAC6 protein levels, time course (FIG. 4)” value (1 μM, over the course of 16 hours)?
**A.** continued to decrease

From patent US12569563B2, “Selective HDAC6 degraders and methods of use thereof” (DANA-FARBER CANCER INSTITUTE, INC., priority 2019, dated 2026)
